From paper PMC5947694, “Structure of the mouse acidic amino acid decarboxylase GADL1” (Acta Crystallographica. Section F, Structural Biology …, 2018)

T1: MmGADL1 (mouse glutamic acid decarboxylase-like protein 1) (Mus musculus, UniProt Q80WP8)
T1 construct: gene Gadl1; residues 1-502, N-terminal His6 tag and TEV site kept; expressed in E. coli; homodimer; residues 11-502 built, loop about 340-350 disordered
T1 sequence (Q80WP8 49-526 isoform Q80WP8-2): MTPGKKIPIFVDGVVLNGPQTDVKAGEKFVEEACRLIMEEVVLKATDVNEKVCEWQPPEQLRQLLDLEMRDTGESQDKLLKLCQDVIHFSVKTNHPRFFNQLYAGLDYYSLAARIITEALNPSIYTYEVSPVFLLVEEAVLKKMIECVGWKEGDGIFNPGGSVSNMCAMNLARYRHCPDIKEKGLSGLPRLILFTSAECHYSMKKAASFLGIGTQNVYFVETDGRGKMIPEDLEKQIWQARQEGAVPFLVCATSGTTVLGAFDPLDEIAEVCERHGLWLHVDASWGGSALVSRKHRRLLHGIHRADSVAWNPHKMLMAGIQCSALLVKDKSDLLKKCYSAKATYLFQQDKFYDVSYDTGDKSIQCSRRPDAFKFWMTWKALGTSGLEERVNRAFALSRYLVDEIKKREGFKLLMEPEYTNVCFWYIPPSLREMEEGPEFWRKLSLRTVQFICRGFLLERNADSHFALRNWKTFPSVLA

B1: mouse glutamic acid decarboxylase-like protein 1 (MmGADL1), His6-tagged, residues 1-502 (enzyme)
chain: MGPHHHHHHLESTSLYKKAGSENLYFQGMTPGKKIPIFVDGVVLNGPQTDVKAGEKFVEEACRLIMEEVVLKATDVNEKVCEWQPPEQLRQLLDLEMRDTGESQDKLLKLCQDVIHFSVKTNHPRFFNQLYAGLDYYSLAARIITEALNPSIYTYEVSPVFLLVEEAVLKKMIECVGWKEGDGIFNPGGSVSNMCAMNLARYRHCPDIKEKGLSGLPRLILFTSAECHYSMKKAASFLGIGTQNVYFVETDGRGKMIPEDLEKQIWQARQEGAVPFLVCATSGTTVLGAFDPLDEIAEVCERHGLWLHVDASWGGSALVSRKHRRLLHGIHRADSVAWNPHKMLMAGIQCSALLVKDKSDLLKKCYSAKATYLFQQDKFYDVSYDTGDKSIQCSRRPDAFKFWMTWKALGTSGLEERVNRAFALSRYLVDEIKKREGFKLLMEPEYTNVCFWYIPPSLREMEEGPEFWRKLSLVAPAIKEKMMKKGSLMLGYQPHRGKVNFFRQVVISPQVSREDMDFLLDEIDSLGRDM
modifications: PLP covalently bound to the N-epsilon atom of Lys314 through a Schiff base linkage (seen in the crystal)

Assays:
[1] = target: T1, MmGADL1 (mouse glutamic acid decarboxylase-like protein 1); test: X-ray crystallography, […] Å (crystal form […]); format: binding; settings: covalent; Schiff base (internal aldimine) with Lys314; active site at dimer interface, both sites occupied
[2] = target: the molecule itself; test: SAXS; 1.6-6.5 mg/ml in 20 mM HEPES pH 7.4, 200 mM NaCl, 293 K; molecular mass from forward scattering I(0) against a monomeric BSA standard

| Molecule | X-ray crystallography, 3.0 Å (crystal form 1) [1] | stoichiometry N [2] |
| --- | --- | --- |
| Cc1ncc(COP(=O)(O)O)c(C=O)c1O [PLP] | Both active sites in the dimer are occupied by the PLP cofactor, which is covalently bound |  |
| B1 |  | 2 ratio to theoretical monomer |
